Entries after “also recorded” stand apart in the source; their conditions may differ.
Columns and labels:
PbT-I liver TRM cells = assay: Prime-and-trap vaccination with CpG or α-GalCer as adjuvant; type: in vivo, C57BL/6 mice; details: adjuvant with αClec9a-NVY plus rAAV-NVY; 50,000 PbT-I cells; liver day 35
Description: The following day all mice were infected with 2.5×10^9 copies of rAAV-NVY. Spleens (A) and livers (B) were harvested from all mice 35 days later and the number of PbT-I TRM (CD69^+CD62L^low), TEM (CD69−CD62L^low) and TCM (CD69−CD62L^high) cells were enumerated by flow cytometry.
As illustrated above, prime-and-trap vaccination using CpG as an adjuvant was very effective at inducing liver TRM cells. To test whether CpG adjuvant might be substituted by α-GalCer, we compared prime-and-trap using CpG versus α-GalCer, (FIG. 3). C57BL/6 mice were injected with 50,000 naïve PbT-I T cells to track responses and were then vaccinated with the anti-Clec9A-NVY fusion protein together with either CpG or α-GalCer as adjuvant plus rAAV-NVY (SEQ ID NO: 15).

NKT cells = assay: NKT cell expansion and activation by NVY conjugates; type: in vivo, C57BL/6 mice; details: 0.135 nmol, day 3
Description: Lymphocytes were stained with monoclonal antibodies for: CD49a (Ha31/8), NK1.1 (PK136) from BD (North Ryde, NSW, Australia), CD8a (53-6.7), KLRG1 (2F1), Ly5.1 (A20), Ly5.1 (104), CD8a (53-6.7), CD44 (IM7), Ly6C (HK1.4), TCRβ (H57-597), CXCR6 (SA051D1), CXCR3 (CXCR3-173), CX3CR1 (SA011F11), from Biolegend (Australian Biosearch, Karrinyup, WA. Australia), and CD62L (MEL-14), CD101 (Moushi101) and CD69 (H1.2F3), from eBioscience (Jomar Life Research, Scoresby, VIC, Australia). Dead cells were excluded by propidium iodide staining or far red live/dead fixable dye (ThermoFisher). In some experiments cells were stained with an α-GalCer (PBS-44—a gift from Prof. Paul Savage, Brigham-Young University, UT, USA)-loaded CD1d tetramer produced in-house at 4° C. for 30 min, washed, and further antibody staining was conducted for 10 min at 4° C. Antibodies used were for: CD3 (17A2), CD45R/B220 (RA3-6B2), NK1.1 (PK136), CD69 (H1.2F3), all from BioLegend (CA, USA). The viability dye used was DAPI (Invitrogen, NZ). Single-color positive control samples were used to adjust compensation and cells were analyzed by flow cytometry on a LSR Fortessa (BD Biosciences), or LSRII SORP using Flowjo software (Tree Star Inc.).

P. berghei sporozoites = assay: P. berghei sporozoite challenge of vaccinated mice given PbT-I cells; details: single vaccination; 200 P. berghei ANKA sporozoites at day 42
Protocol: The remaining mice were challenged with 200 P. berghei sporozoites at day 42 and parasitemia was measured by flow cytometry from day 6-13. […] Percentage of parasites present in red blood cells at day 7 post malaria challenge. […] Number of mice that succumbed or were protected after malaria challenge.
The remaining mice in each group were challenged with 200 P. berghei sporozoites at day 73 and parasitemia was measured at day 79, 80, 81. Mice with two consecutive days of visible parasites in the blood were culled. Mice surviving challenge with low dose sporozoites were rechallenged with 3000 sporozoites. Parasitemia was measured at days 5, 6, 7, 8 and 12 post-high-dose-challenge.
As described in Example 11, 50,000 PbT-I.GFP cells were transferred into recipient C57BL/6 mice. […] Organs were harvested from mice from each group at days 21-35 post vaccination and assessed for the generation of memory T cells by flow cytometry as outlined in FIG. 5. The remaining mice per group were challenged with 200 P. berghei sporozoites at day 42 and parasitemia was measured by flow cytometry at days 6, 7, 8 and 13. […]
As described in Example 12, 50,000 PbT-I.GFP cells were transferred into recipient C57BL/6 mice. […] Organs were harvested from mice from each group at days 21 post vaccination and assessed for the generation of memory T cells by flow cytometry as outlined in FIG. 5. […]

[1] = test system: epitope-specific CD8+ T cell response; assay: PfRPL677-85-specific response in spleen by ELISpot after peptide immunization of HHD mice; type: in vivo; details: peptide with anti-CD40 mAb and poly IC, spleen day 7
Protocol: HHD mice, which express human HLA-A*02:01 and lack expression of murine MHC class molecules, were immunized with […] anti-CD40 mAb+[…] poly IC+[…] of PfRPL677-85 peptide ([…]) (SEQ ID NO: 18), or no peptide. 7 days later, PfRPL677-85-specific responses were measured in the spleen by ELISpot, by restimulating with the same peptide. Data were analysed using two-way ANOVA; Number of experiments=2, number of mice=3-4.
Having characterized PBANKA 1351900 (60S ribosomal protein L6-2, putative) RPL6 as a promising antigen in P. berghei, we sought to identify potential human-relevant antigens in its P. falciparum ortholog (PF3D7 1338200, also known as PF13 0213). To this extent, we used the Immune Epitope Database (IEDB: https://www.iedb.org/) epitope prediction resource (Vita, R. et al. 2019) to search for peptides within P. falciparum RPL6 that were capable of binding HLA-A*02:01; a common allele.

Compound	liver TRM cell numbers in prime-and-trap setting (PbT-I liver TRM cells)	expansion of NKT cells (numbers in liver and spleen) (NKT cells)	activation of NKT cells (CD69, NK1.1) (NKT cells; liver and spleen)	protection after malaria challenge (P. berghei sporozoites)	epitope-specific CD8+ T cell response [1]
CCCCCCCCCCCCCCCCCCCCCCCCCC(=O)N[C@@H](CO[C@H]1O[C@H](CO)[C@H](O)[C@H](O)[C@H]1O)[C@H](O)[C@H](O)CCCCCCCCCCCCCC [α-GalCer, N-((2S,3S,4R)-3,4-Dihydroxy-1-(((2S,3R,4S,5R,6R)-3,4,5-trihydroxy-6-(hydroxymethyl)tetrahydro-2H-pyran-2-yl)oxy)octadecan-2-yl)hexacosanamide]	gave a much poorer liver TRM cell response; also recorded: does not generate large numbers of liver TRM cells; also recorded: did not produce high numbers of liver TRM cells	more efficient at expanding NKT cells than V.S.NVYLP	more potently activated NKT cells when compared to V.S.NVYLP	no mice were protected	–
ILNSGLLAV	–	–	–	–	triggered an epitope-specific CD8^+ T cell response
